The values below are quoted from earlier work in patent publication US8071794B2, “Long wavelength thiol-reactive fluorophores” (Becton, Dickinson and Company, priority 2004, dated 2011).

The conditions of the data set: changing environment from methanol (polar protic) to toluene (non-polar); cited from earlier work.

Regarding `CN(C)c1ccc(C2=C(O)C(c3ccc(N(C)C)cc3)=C2O)cc1` [squaraine nucleus III], the “increase in fluorescence quantum yield” value was 20 fold.
